Values joined by “and” are separate entries in the source; they are usually repeats but may differ in a detail not shown here. Equal values may be shown once. Inconclusive results and toxic doses are left out.
Test system: P388 leukemia ip, CD2F1 mice, survival T/C
Assay: NCI In Vivo Anticancer Drug Screen. Data for tumor model P388 Leukemia (intraperitoneal) in CD2F1 (CDF1) mice
Details: endpoint: median survival time, higher = longer survival
Summary of the method: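 Mice carrying the transplanted tumor received test compound or vehicle. Survival was recorded in each group, and the value is the treated-group measurement divided by that of the vehicle-treated control group.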

[1] = dose: 100.0 mg/kg/injection, schedule: Q01DX001 (ip), vehicle: Klucel (hydroxypropylcellulose) (HPC)
[2] = dose: 200.0 mg/kg/injection, schedule: Q01DX001 (ip), vehicle: Klucel (hydroxypropylcellulose) (HPC)
[3] = dose: 50.0 mg/kg/injection, schedule: Q01DX005 (ip), vehicle: saline
[4] = dose: 100.0 mg/kg/injection, schedule: Q01DX005 (ip), vehicle: saline
[5] = dose: 200.0 mg/kg/injection, schedule: Q01DX005 (ip), vehicle: saline
[6] = dose: 50.0 mg/kg/injection, schedule: Q01DX009 (ip), vehicle: saline with Tween-80
[7] = dose: 100.0 mg/kg/injection, schedule: Q01DX009 (ip), vehicle: saline with Tween-80
[8] = dose: 200.0 mg/kg/injection, schedule: Q01DX009 (ip), vehicle: saline with Tween-80
[9] = dose: 6.25 mg/kg/injection, schedule: Q01DX009 (ip), vehicle: saline
[10] = dose: 12.5 mg/kg/injection, schedule: Q01DX009 (ip), vehicle: saline
[11] = dose: 50.0 mg/kg/injection, schedule: Q01DX005 (ip), vehicle: Klucel (hydroxypropylcellulose) (HPC)
[12] = dose: 100.0 mg/kg/injection, schedule: Q01DX005 (ip), vehicle: Klucel (hydroxypropylcellulose) (HPC)
[13] = dose: 50.0 mg/kg/injection, schedule: Q01DX009 (ip), vehicle: saline
[14] = dose: 100.0 mg/kg/injection, schedule: Q01DX009 (ip), vehicle: saline
[15] = dose: 60.0 mg/kg/injection, schedule: Q01DX005 (ip), vehicle: saline

Question: O=c1cc[nH]c2ccc3ccccc3c12 was tested. Which T/C [1] did it give?
Answer: 97 % of control

Question: And the T/C [2]?
Answer: 96 % of control

Question: How did the T/C [3] turn out when CCCNCc1cccc2ccnc(C)c12 was run?
Answer: 109 % of control

Question: And the T/C [4]?
Answer: 104 % of control

Question: And the T/C [5]?
Answer: 101 % of control

Question: Which results are given for CC(C)CC(NC(=O)OC(C)(C)C)C(=O)ON1C(=O)CCC1=O (centres undefined)?
Answer: T/C (dose: 50.0 mg/kg/injection, schedule: Q01DX005 (ip), vehicle: saline with Tween-80): 111 % of control; T/C (dose: 100.0 mg/kg/injection, schedule: Q01DX005 (ip), vehicle: saline with Tween-80): 111 % of control

Question: What does the source list for c1ccc2[nH]ncc2c1?
Answer: T/C [6]: 96 % of control; T/C [7]: 102 % of control; T/C [8]: 100 % of control

Question: Cc1ccc(C2CNC(=S)S2)cc1 (centres undefined) was tested. Which T/C (dose: 50.0 mg/kg/injection, schedule: Q01DX009 (ip), vehicle: DMSO) did it give?
Answer: 92 % of control

Question: And the T/C (dose: 100.0 mg/kg/injection, schedule: Q01DX009 (ip), vehicle: DMSO)?
Answer: 98 % of control

Question: And the T/C (dose: 200.0 mg/kg/injection, schedule: Q01DX009 (ip), vehicle: DMSO)?
Answer: 98 % of control

Question: For CCOC(=O)Nc1ccc2nc(Sc3ccc(C)cc3)sc2c1, which T/C [6] is on record?
Answer: 99 % of control

Question: And the T/C [7]?
Answer: 110 % of control

Question: And the T/C [8]?
Answer: 119 % of control

Question: With C=C[C@H](c1ccccc1O)c1cc(OC)c(OC)cc1OC as the compound, how does the T/C (dose: 31.75 mg/kg/injection, schedule: Q01DX005 (ip), vehicle: Klucel (hydroxypropylcellulose) (HPC)) read?
Answer: 104 % of control

Question: And the T/C (dose: 63.5 mg/kg/injection, schedule: Q01DX005 (ip), vehicle: Klucel (hydroxypropylcellulose) (HPC))?
Answer: 103 % of control

Question: What about the T/C (dose: 127.0 mg/kg/injection, schedule: Q01DX005 (ip), vehicle: Klucel (hydroxypropylcellulose) (HPC)) of the same compound?
Answer: 106 % of control

Question: What about the T/C (dose: 254.0 mg/kg/injection, schedule: Q01DX005 (ip), vehicle: Klucel (hydroxypropylcellulose) (HPC)) of the same compound?
Answer: 102 % of control

Question: Which results are given for CCNC(=S)NN?
Answer: T/C (dose: 3.13 mg/kg/injection, schedule: Q01DX009 (ip), vehicle: saline): 106 % of control; T/C [9]: 114 % of control; T/C [10]: 105 % of control

Question: How did the T/C [11] turn out when CC12CC(c3ccccc3N1)C1CC2(C)Nc2ccccc21 was run?
Answer: 95 % of control

Question: And the T/C [12]?
Answer: 100 % of control

Question: What about the T/C (dose: 200.0 mg/kg/injection, schedule: Q01DX005 (ip), vehicle: Klucel (hydroxypropylcellulose) (HPC)) of the same compound?
Answer: 102 % of control

Question: How did the T/C [9] turn out when Nc1[nH]c(=S)[nH]c(=O)c1N=O was run?
Answer: 100 % of control and 113 % of control

Question: What about the T/C [10] of the same compound?
Answer: 98 % of control

Question: What about the T/C (dose: 25.0 mg/kg/injection, schedule: Q01DX009 (ip), vehicle: saline) of the same compound?
Answer: 100 % of control and 117 % of control

Question: Which T/C [1] does the source give for Cc1cc2nc3[nH]c(=O)c4ccccc4c(=O)n3c2cc1C here?
Answer: 98 % of control

Question: And the T/C [2]?
Answer: 92 % of control

Question: What does the source list for COc1c(OC(C)=O)ccc2c1C=CCCC2=O?
Answer: T/C [7]: 104 % of control; T/C [8]: 102 % of control; T/C (dose: 400.0 mg/kg/injection, schedule: Q01DX009 (ip), vehicle: saline with Tween-80): 102 % of control

Question: What does the source list for CC1(C)CC(=O)C2=C(C1)Oc1c(Cl)cc(Cl)cc1C2?
Answer: T/C [13]: 108 % of control; T/C [14]: 98 % of control; T/C (dose: 200.0 mg/kg/injection, schedule: Q01DX009 (ip), vehicle: saline): 92 % of control

Question: How did the T/C [11] turn out when N=c1nc(-c2ccccc2)c(-c2ccccc2)nn1CC(=O)c1ccc(Br)cc1 was run?
Answer: 111 % of control

Question: And the T/C [12]?
Answer: 94 % of control

Question: Which results are given for CC1CC(=O)c2c(CO)nn(CCCO)c2C1 (centres undefined)?
Answer: T/C (dose: 15.0 mg/kg/injection, schedule: Q01DX005 (ip), vehicle: Klucel (hydroxypropylcellulose) (HPC)): 101 % of control; T/C (dose: 30.0 mg/kg/injection, schedule: Q01DX005 (ip), vehicle: Klucel (hydroxypropylcellulose) (HPC)): 102 % of control; T/C (dose: 60.0 mg/kg/injection, schedule: Q01DX005 (ip), vehicle: Klucel (hydroxypropylcellulose) (HPC)): 101 % of control; T/C [15]: 101 % of control

Question: With N/C(Cc1noc2ccccc12)=N\O as the compound, how does the T/C [13] read?
Answer: 109 % of control

Question: And the T/C [14]?
Answer: 107 % of control

Question: With COC(=O)Nc1nc2ccc(C(=O)OC(C)C)cc2[nH]1 as the compound, how does the T/C (dose: 100.0 mg/kg/injection, schedule: Q04DX003 (ip), vehicle: saline with Tween-80) read?
Answer: 111 % of control and 116 % of control

Question: And the T/C (dose: 200.0 mg/kg/injection, schedule: Q04DX003 (ip), vehicle: saline with Tween-80)?
Answer: 118 % of control

Question: What about the T/C (dose: 800.0 mg/kg/injection, schedule: Q04DX003 (ip), vehicle: saline with Tween-80) of the same compound?
Answer: 155 % of control

Question: For O=C1CCC(=O)S1, which T/C (dose: 12.5 mg/kg/injection, schedule: Q04DX002 (ip), vehicle: saline with Tween-80) is on record?
Answer: 100 % of control

Question: And the T/C (dose: 25.0 mg/kg/injection, schedule: Q04DX002 (ip), vehicle: saline with Tween-80)?
Answer: 91 % of control

Question: What about the T/C (dose: 50.0 mg/kg/injection, schedule: Q04DX002 (ip), vehicle: saline with Tween-80) of the same compound?
Answer: 91 % of control

Question: Which T/C [3] does the source give for CCCCn1[nH]nc(C(=O)OC)c1=O (tested in a mixture with another compound) here?
Answer: 105 % of control

Question: What about the T/C [4] of the same compound?
Answer: 102 % of control

Question: And the T/C [5]?
Answer: 94 % of control

Question: How did the T/C (dose: 100.0 mg/kg/injection, schedule: Q01DX009 (ip), vehicle: Klucel (hydroxypropylcellulose) (HPC)) turn out when CCCCCCCCCCCCOC(=O)c1ccc(Br)cc1 was run?
Answer: 104 % of control

Question: What about the T/C (dose: 200.0 mg/kg/injection, schedule: Q01DX009 (ip), vehicle: Klucel (hydroxypropylcellulose) (HPC)) of the same compound?
Answer: 102 % of control

Question: Which results are given for O=C(CNNC(=O)OCc1ccccc1)OCc1ccccc1?
Answer: T/C (dose: 12.5 mg/kg/injection, schedule: Q01DX009 (ip), vehicle: other): 95 % of control; T/C (dose: 25.0 mg/kg/injection, schedule: Q01DX009 (ip), vehicle: other): 99 % of control; T/C (dose: 50.0 mg/kg/injection, schedule: Q01DX009 (ip), vehicle: other): 93 % of control; T/C (dose: 100.0 mg/kg/injection, schedule: Q01DX009 (ip), vehicle: other): 96 % of control

Question: Which results are given for Cc1ccc(N=c2oc(-c3ccccc3)cs2)cc1?
Answer: T/C (dose: 100.0 mg/kg/injection, schedule: Q01DX001 (ip), vehicle: saline with Tween-80): 90 % of control; T/C (dose: 200.0 mg/kg/injection, schedule: Q01DX001 (ip), vehicle: saline with Tween-80): 89 % of control; T/C (dose: 400.0 mg/kg/injection, schedule: Q01DX001 (ip), vehicle: saline with Tween-80): 88 % of control

Question: With COc1ccc(CCNc2ccc(OC)c(OC)c2)cc1OC as the compound, how does the T/C (dose: 12.5 mg/kg/injection, schedule: Q01DX009 (ip), vehicle: water) read?
Answer: 91 % of control

Question: What about the T/C (dose: 25.0 mg/kg/injection, schedule: Q01DX009 (ip), vehicle: water) of the same compound?
Answer: 98 % of control

Question: What about the T/C (dose: 50.0 mg/kg/injection, schedule: Q01DX009 (ip), vehicle: water) of the same compound?
Answer: 100 % of control

Question: What about the T/C (dose: 100.0 mg/kg/injection, schedule: Q01DX009 (ip), vehicle: water) of the same compound?
Answer: 95 % of control

Question: What about the T/C (dose: 200.0 mg/kg/injection, schedule: Q01DX009 (ip), vehicle: water) of the same compound?
Answer: 90 % of control

Question: Which T/C [15] does the source give for CC(=O)Cc1cc(-c2cc(CC(C)=O)nc(N)n2)nc(N)n1 here?
Answer: 96 % of control

Question: What about the T/C (dose: 120.0 mg/kg/injection, schedule: Q01DX005 (ip), vehicle: saline) of the same compound?
Answer: 96 % of control

Question: And the T/C (dose: 240.0 mg/kg/injection, schedule: Q01DX005 (ip), vehicle: saline)?
Answer: 97 % of control

Question: Which results are given for C=CCC1CCCCC1=O (centres undefined) (tested in a mixture with another compound)?
Answer: T/C [6]: 105 % of control; T/C [7]: 104 % of control; T/C [8]: 115 % of control
